# From patent US7741311B2, “Composition and method for treating occlusive vascular diseases, nerve regeneration, and wound healing” (priority 2005, dated 2010)
# Key:
# [1] = system: chick chorioallantoic membrane (CAM); test: neovascularization in the chick chorioallantoic membrane (CAM) model; format: in vivo; conditions: n = 8
# Description: In vivo neovascularization was examined by the method previously described by Auerbach et al. (Auerbach et al., J. Dev. Biol., 41:391-394 (1974), which is hereby incorporated by reference in its entirety). Ten-day old embryos were purchased from Spafas, Inc. (Preston, Conn.) and were incubated at 37° C. with 55% relative humidity. In the dark with the help of a candling lamp, a small hole was punctured in the shell concealing the air sac with a hypodermic needle. A second hole was punctured in the shell on the broadside of the egg directly over an avascular portion of the embryonic membrane, as observed during candling. […]
# (§1) CAM tissue directly beneath FGF2-saturated filter disk was resected from embryos treated 48 hours prior with test compound or control. […] Digital images of CAM sections adjacent to filters were collected using a 3-CCD color video camera system (Toshiba America, New York, N.Y.) and analyzed using Image-Pro Plus software (Media Cybernetics, Silver Spring, Md.).
# as §1, with “48 h” for “48 hours”, “with” for “with test”, “analyzed with the” for “analyzed using”
# [2] = system: human dermal micro-vascular endothelial cells (HDMEC); test: three-dimensional in vitro sprout angiogenesis assay (endothelial cells on gelatin-coated beads in fibrin gel); format: cell-based; conditions: Ch 2 (10 μg); sub-threshold levels of VEGF and b-FGF; P<0.01
# Description: The effect of low molecular weight sulfated saccharides (molecular weight<5000 Dalton) on micro-vascular endothelial cell sprouting (in Vitro 3D Sprout Angiogenesis) is depicted with respect to culture of HDMEC on micro-carrier beads in FIG. 19. 80% confluent HDMEC (Passage 5-10) are mixed with gelatin-coated Cytodex-3 beads with a ratio of 40 cells per bead. If using 24-well plate for the assay, 150-200 beads per well are used. Cells and beads are suspended with 5 ml EBM+15% normal human serum, mixed gently every one hour for first four hours. Then the mixture culture is left in CO2 incubator overnight. The next morning, 10 ml of fresh EBM+15% HS and culture are added for another three hours. Before experiments, the culture of EC-beads is checked. 500 ul of PBS in a well of 24-well plate is added. 100 ul of the EC-bead culture solution is added to the PBS. The number of beads are observed and counted. The concentration of EC-beads is calculated. […]
# Culture of HDMEC on micro-carrier beads: 80% confluent HDMEC (Passage 5-10) were mixed with gelatin-coated Cytodex-3 beads with a ratio of 40 cells per bead. […] The number of beads is counted and the concentration of EC-beads is calculated. […]
# Growth factors: VEGF (30 ng/ml)+FGF2 (25 ng/ml) CH2: Sulfated Hexasaccharide at 10 ug/ml. […] A quantitative three-dimensional in vitro assay method was utilized to screen compounds for angiogenic activity. […]
smiles,measurement,setting,value
COc1cccc(-c2cc(=O)c3ccccc3o2)c1N [PD9805],Mean % Inhibition ± SEM,"[1]; inhibition of Ch 2 (10 μg) pro-angiogenesis by inhibitor 4.8 μg, P < 0.01",71 ± 6 %
same,Mean Branch Points ± SEM,[1]; inhibitor 4.8 μg added to PBS + Ch 2 (10 μg),95 ± 8
same,blockade of angiogenesis promoted by Ch 2,[2],blocked
